According to ChEMBL document CHEMBL5113529, “Design, Synthesis, and Biological Evaluation of Dual-Target COX-2/CYP51 Inhibitors for the Treatment of Fungal Infectious Diseases” (J Med Chem, 2022):
Activity calls are given as the source filed them. No cut-off for these calls is given here.

Assays:
[1] = species: Mus musculus; experiment: Antiinflammatory activity against mouse infected with Candida albicans ATCC SC5314 assessed as reduction in NLRP3 expression in spleen by Western blot analysis; type: functional, organism-based
[2] = species: Mus musculus; experiment: Antiinflammatory activity in mouse infected with Candida albicans ATCC SC5314 assessed as reduction in COX-2 expression in spleen by hematoxylin staining based inverted microscopic analysis (reference value: 83.52 a.u.); type: functional
[3] = target: Prostaglandin G/H synthase 1 (Homo sapiens, UniProt P23219); experiment: Inhibition of COX-1 (unknown origin) using arachidonic acid as substrate preincubated for 10 mins followed by substrate addition and measured after 2 mins by immunoassay
[4] = target: T1, Prostaglandin G/H synthase 2 (Homo sapiens, UniProt P35354); experiment: Inhibition of COX-2 (unknown origin) using arachidonic acid as substrate preincubated for 10 mins followed by substrate addition and measured after 2 mins by immunoassay
T1 sequence (P35354 whole entry): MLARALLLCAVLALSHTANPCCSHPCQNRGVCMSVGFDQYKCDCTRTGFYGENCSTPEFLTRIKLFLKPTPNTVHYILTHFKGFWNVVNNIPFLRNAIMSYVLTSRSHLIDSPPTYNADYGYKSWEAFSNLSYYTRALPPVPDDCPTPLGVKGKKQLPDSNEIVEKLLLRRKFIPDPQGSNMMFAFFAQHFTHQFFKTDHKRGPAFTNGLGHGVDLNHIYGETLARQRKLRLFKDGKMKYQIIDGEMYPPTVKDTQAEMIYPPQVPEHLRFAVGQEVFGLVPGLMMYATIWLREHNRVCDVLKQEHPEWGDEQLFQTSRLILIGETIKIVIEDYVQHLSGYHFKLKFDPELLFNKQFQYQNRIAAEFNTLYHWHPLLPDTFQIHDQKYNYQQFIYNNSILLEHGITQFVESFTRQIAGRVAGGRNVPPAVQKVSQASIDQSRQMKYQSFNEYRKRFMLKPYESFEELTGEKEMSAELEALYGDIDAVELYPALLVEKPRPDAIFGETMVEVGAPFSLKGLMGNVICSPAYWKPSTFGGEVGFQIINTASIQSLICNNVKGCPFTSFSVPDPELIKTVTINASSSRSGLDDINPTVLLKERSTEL

[5] = Toxicity in Candida albicans ATCC SC5314 infected-mouse assessed as effect on body weight at 10 ug per 20 g, ip administered on day 2, 4, 6, 8, 10 and 12 and measured on day 14; type: organism-based; settings: in vivo, 336 h, dose 10 µg, time 14 day
[6] = system: Candida albicans; experiment: Antifungal activity against Candida albicans ATCC SC5314 assessed as induction of ROS production by measuring fluorescence intensity incubated for 12 hrs by KGT010-1 staining based fluorescence microscopy; type: functional, organism-based
[7] = species: Mus musculus; experiment: Antiinflammatory activity in mouse infected with Candida albicans ATCC SC5314 assessed as reduction in MMP-9 expression in spleen by hematoxylin staining based inverted microscopic analysis (reference value: 36.74 a.u.); type: functional
[8] = Toxicity in mouse infected with Candida albicans assessed as BUN level in plasma at 10 ug per 20 g, ip administered on day 2, 4, 6, 8, 10 and 12 and measured on day 14 in presence of naproxen (reference value: 8.2 +/- 0.5 mmol/L); type: organism-based; settings: in vivo, 336 h, dose 10 µg, time 14 day
[9] = Toxicity in mouse infected with Candida albicans assessed as heart injury at 10 ug per 20 g, ip administered on day 2, 4, 6, 8, 10 and 12 and measured on day 14 by H and E staining based assay; type: organism-based; settings: in vivo, 336 h, dose 10 µg, time 14 day
[10] = system: Cryptococcus neoformans; experiment: Antifungal activity against Cryptococcus neoformans ZKCC 2209 assessed as fungal growth inhibition measured after 72 hrs in presence of naproxen by double dilution method; type: functional
[11] = species: Mus musculus; experiment: Antiinflammatory activity against mouse infected with Candida albicans ATCC SC5314 assessed as reduction in COX-2 expression in spleen in presence of naproxen by Western blot analysis; type: functional; set-up: scale not given: the % may be the effect or the level left
[12] = system: Candida albicans; experiment: Antifungal actvity against Candida albicans ATCC SC5314 infected in mouse assessed as reduction in infection at 10 ug per 20 g, ip administered on day 2, 4, 6, 8, 10 and 12 and measured on day 14 in presence of naproxen; type: functional, organism-based; settings: time 14.0 day
[13] = species: Mus musculus; experiment: Antiinflammatory activity in mouse infected with Candida albicans ATCC SC5314 assessed as reduction in MMP-9 expression in spleen in presence of naproxen by hematoxylin staining based inverted microscopic analysis; type: functional
[14] = system: Aspergillus fumigatus; experiment: Antifungal activity against Aspergillus fumigatus KM8001 assessed as fungal growth inhibition measured after 72 hrs in presence of naproxen by double dilution method; type: functional
[15] = Toxicity in mouse infected with Candida albicans assessed as liver injury at 10 ug per 20 g, ip administered on day 2, 4, 6, 8, 10 and 12 and measured on day 14 by H and E staining based assay; type: organism-based; settings: in vivo, 336 h, dose 10 µg, time 14 day
[16] = Toxicity in mouse infected with Candida albicans assessed as spleen injury at 10 ug per 20 g, ip administered on day 2, 4, 6, 8, 10 and 12 and measured on day 14 by H and E staining based assay; type: organism-based; settings: in vivo, 336 h, dose 10 µg, time 14 day
[17] = system: Candida albicans; experiment: Antifungal activity against fluconazole- resistant Candida albicans 17# assessed as fungal growth inhibition measured after 72 hrs in presence of naproxen by double dilution method; type: functional
[18] = system: Candida albicans; experiment: Antifungal actvity against Candida albicans ATCC SC5314 infected in mouse assessed as reduction in fungal infection at 10 ug per 20 g, ip administered on day 2, 4, 6, 8, 10 and 12 and measured on day 14 in presence of naproxen; type: functional, organism-based; settings: dose 10.0 µg, time 14.0 day
[19] = system: Candida albicans; experiment: Antifungal actvity against Candida albicans ATCC SC5314 infected in mouse assessed as reduction in infection at 10 ug per 20 g, ip administered on day 2, 4, 6, 8, 10 and 12 and measured on day 14; type: functional, organism-based; settings: time 14.0 day
[20] = system: Candida albicans; experiment: Antifungal activity against fluconazole- resistant Candida albicans 904 assessed as fungal growth inhibition measured after 72 hrs in presence of naproxen by double dilution method; type: functional
[21] = system: Candida albicans; experiment: Antifungal activity against fluconazole- resistant Candida albicans CaR assessed as fungal growth inhibition measured after 72 hrs in presence of naproxen by double dilution method; type: functional
[22] = Toxicity in mouse infected with Candida albicans assessed as AST level in plasma at 10 ug per 20 g, ip administered on day 2, 4, 6, 8, 10 and 12 and measured on day 14 in presence of naproxen (reference value: 74.9 +/- 6.7 IU/L); type: organism-based; settings: in vivo, 336 h, dose 10 µg, time 14 day
[23] = Toxicity in mouse infected with Candida albicans assessed as kidney injury at 10 ug per 20 g, ip administered on day 2, 4, 6, 8, 10 and 12 and measured on day 14 by H and E staining based assay; type: organism-based; settings: in vivo, 336 h, dose 10 µg, time 14 day
[24] = system: Candida tropicalis; experiment: Antifungal activity against Candida tropicalis ATCC 1369 assessed as fungal growth inhibition measured after 72 hrs in presence of naproxen by double dilution method; type: functional
[25] = system: Candida albicans; experiment: Induction of morphological changes in Candida albicans ATCC SC5314 assessed as disappearance of nucleus measured for 48 to 72 hrs by transmission electron microscopic analysis; type: functional, organism-based; settings: time 48-72 hrs
[26] = system: Candida albicans; experiment: Induction of morphological changes in Candida albicans ATCC SC5314 assessed as cell leakage measured for 96 hrs by transmission electron microscopic analysis; type: functional, organism-based

Sequence of Prostaglandin G/H synthase 1 (P23219 whole entry): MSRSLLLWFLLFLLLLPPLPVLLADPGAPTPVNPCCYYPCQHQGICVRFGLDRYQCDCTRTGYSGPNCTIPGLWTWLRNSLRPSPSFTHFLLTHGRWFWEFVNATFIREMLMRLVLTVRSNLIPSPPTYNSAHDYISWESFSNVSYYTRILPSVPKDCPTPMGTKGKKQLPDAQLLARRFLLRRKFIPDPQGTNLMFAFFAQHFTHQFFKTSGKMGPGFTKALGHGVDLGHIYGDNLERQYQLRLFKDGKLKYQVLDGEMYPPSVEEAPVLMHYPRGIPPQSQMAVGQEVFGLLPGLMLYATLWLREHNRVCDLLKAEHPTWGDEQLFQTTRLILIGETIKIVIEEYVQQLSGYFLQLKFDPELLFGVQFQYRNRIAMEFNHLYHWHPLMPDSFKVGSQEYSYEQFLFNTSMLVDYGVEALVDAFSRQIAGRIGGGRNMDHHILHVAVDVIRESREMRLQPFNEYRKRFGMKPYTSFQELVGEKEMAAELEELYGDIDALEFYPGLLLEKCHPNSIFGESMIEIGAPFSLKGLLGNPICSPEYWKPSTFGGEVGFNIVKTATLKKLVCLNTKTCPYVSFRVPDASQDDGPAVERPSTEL

In the case of `CC(C)NC(=O)[C@@H](Cn1ccnc1)NC(=O)[C@@H](C)c1cccc(C(=O)c2ccccc2)c1`, the Activity [1] is reported as “Active”, the Activity [2] is reported as 20.15 a.u and the IC50 [3] is reported as > 50 µM. For the same compound, the IC50 [4] was 3.02 µM, the Activity [5] was “Non-Toxic” and the Activity [6] was “Active”. It also gave an Activity [7] of 12.13 a.u.

With `OC(Cn1cncn1)(Cn1cncn1)c1ccc(F)cc1F` [FLUCONAZOLE] the Activity [8] was 9.5 IU/L, the Activity [9] was “Non-Toxic” and the MIC50 [10] was 0.25 µg/mL. The Activity [11] was 39.43%, the Activity [12] was “Active” and the Activity [13] was 26.05 a.u. The MIC50 [14] was 4 µg/mL, the Activity [15] was “Non-Toxic” and the Activity [16] was “Non-Toxic”. The MIC50 [17] was 4 µg/mL, the Activity [18] was “Active” and the Activity [19] was “Active”. For the same compound, the MIC50 [20] was 2 µg/mL, the MIC50 [21] was 2 µg/mL and the Activity [6] was “Active”. The Activity [22] was 76.4 IU/L, the Activity [23] was “Non-Toxic” and the MIC50 [24] was 0.5 µg/mL.

For `COc1ccc2cc([C@H](C)C(=O)NC(Cn3cncn3)C(=O)c3ccccc3)ccc2c1` (stereo partly drawn), the Activity [1] was “Active”, the Activity [9] was “Non-Toxic” and the Activity [2] was 20.15 a.u. For the same compound, the Activity [15] was “Non-Toxic”, the Activity [16] was “Non-Toxic” and the IC50 [3] was > 50 µM. The IC50 [4] was 1.96 µM, the Activity [19] was “Active” and the Activity [25] was “Active”. For the same compound, the Activity [5] was “Non-Toxic”, the Activity [26] was “Active” and the Activity [7] was 12.13 a.u. For the same compound, the Activity [23] was “Non-Toxic”.
